According to patent EP3442966B1, “NOVEL N-[(PYRIMIDINYLAMINO)PROPANYL]- AND N-[(PYRIDINYLAMINO)PROPANYL]ARYLCARBOXAMIDES” (Boehringer Ingelheim International GmbH, priority 2016, dated 2017):
Where two headings read alike, the source gives them in different places.

What was measured:
[1] = molecular target: T1, human orexin 2 receptor (Homo sapiens, UniProt O43614); test: Assay B: in vitro testing of OX2R potency, OX2R IP1 (HTRF) in CHO-K1/hOx2 cells; type: cell-based; conditions: 0.5 nM Orexin A concentration
T1 construct: stably expressing the full-length human orexin 2 receptor; expressed in transfected cells; host or cells: CHO-K1 (CHO-K1/hOx2), co-expressing the aequorin photoprotein
T1 sequence (O43614 1-444): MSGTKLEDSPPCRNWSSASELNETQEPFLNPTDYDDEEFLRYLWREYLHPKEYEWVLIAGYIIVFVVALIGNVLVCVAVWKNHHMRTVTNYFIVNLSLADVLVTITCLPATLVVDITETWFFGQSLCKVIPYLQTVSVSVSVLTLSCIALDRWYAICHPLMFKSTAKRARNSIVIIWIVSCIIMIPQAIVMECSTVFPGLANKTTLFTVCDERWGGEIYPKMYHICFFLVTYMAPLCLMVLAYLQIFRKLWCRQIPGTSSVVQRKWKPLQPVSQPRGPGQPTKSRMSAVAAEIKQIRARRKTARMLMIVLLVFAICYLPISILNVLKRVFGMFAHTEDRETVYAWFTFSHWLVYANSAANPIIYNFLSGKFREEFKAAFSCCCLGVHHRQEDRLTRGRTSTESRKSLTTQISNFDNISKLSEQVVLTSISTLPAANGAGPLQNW

[2] = molecular target: T2, OX1R (Homo sapiens, UniProt O43613); test: OX1R assay of WO2016/034882, Table 3 (Method B); type: cell-based; conditions: ratio from WO2016/034882 Table 3 (Method B) values
T2 sequence (O43613 1-425): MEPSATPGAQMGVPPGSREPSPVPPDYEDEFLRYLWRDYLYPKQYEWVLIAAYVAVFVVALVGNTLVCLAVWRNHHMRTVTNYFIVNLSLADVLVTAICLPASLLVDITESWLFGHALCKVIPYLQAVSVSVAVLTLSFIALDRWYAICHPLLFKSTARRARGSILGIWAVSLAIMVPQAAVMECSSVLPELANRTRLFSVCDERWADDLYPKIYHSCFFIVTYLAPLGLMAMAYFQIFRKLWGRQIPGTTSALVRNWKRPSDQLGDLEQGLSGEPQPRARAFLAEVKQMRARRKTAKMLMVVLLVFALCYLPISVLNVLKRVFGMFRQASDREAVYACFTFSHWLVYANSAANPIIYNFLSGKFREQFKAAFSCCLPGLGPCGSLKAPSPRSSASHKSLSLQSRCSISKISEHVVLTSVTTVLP

[3] = molecular target: T3, OX2R (Homo sapiens, UniProt O43614); conditions: WO2016/034882 Table 3 (Method B), cited from earlier work; for IC50: conversion of pIC50
T3 sequence (O43614 1-444): T1 sequence (O43614 1-444)

[4] = molecular target: T4, human Orexin 1 receptor (Homo sapiens, UniProt O43613); test: Assay A: in vitro testing of OX1R potency, OX1R IP1 (HTRF) in CHO-K1/hOx1 cells; type: cell-based
T4 construct: stably expressing the full-length human Orexin 1 receptor; expressed in transfected cells; host or cells: CHO-K1 (CHO-K1/hOx1), co-expressing the aequorin photoprotein
T4 sequence (O43613 1-425): T2 sequence (O43613 1-425)
From the text: Activation of the orexin receptors expressed in cell lines results in an increase in intracellular IP3 concentration. IP1, a downstream metabolite of IP3, accumulates in cells following receptor activation and is stable in the presence of LiCI. Using Homogeneous Time-Resolved Fluorescence technology with Lumi4-Tb cryptate (commercially available from Cisbio Bioassay) and a suitable fluorescence plate reader. […] This technique is used to characterize pharmacological modification of the orexin receptors.
IP1 measurements are performed in CHO-K1 cells stably expressing the full-length human Orexin 1 receptor and the aequorin photoprotein. Cells are cultivated in Ham's nutrient mixture F12 medium with 10% fetal calf serum, in a 37°C, 95% humidity and 5% CO2 incubator. The CHO-K1/hOx1 cell mass is expanded to larger cell numbers. The cells are obtained as frozen cells in cryo-vials and stored until use at -150°C.
In preparation for the assay, 24 hours before the assay, the cells are thawed at 37°C and immediately diluted with cell culture medium. After centrifugation, the cell pellet is re-suspended in medium and then distributed into the assay plates with a density of 10000 cells/25 µL per well. The plates are incubated for one hour at room temperature to reduce edge effects before they are incubated for 24 hours at 37°C/5% CO2. Compounds are prepared by an 8-point serial dilution in DMSO and a final dilution step into assay buffer (HBSS with 20 mM HEPES, 0.1% BSA and 50 mM LiCl, pH 7.4) to ensure a final DMSO concentration of 1% in the assay.
On the day of the assay, cells in the plate are washed twice with 60 µL assay buffer (20 µL buffer remained in the wells after washing), followed by adding 5 µL per well of compounds diluted in assay buffer. After 15 minutes of incubation at room temperature 5 µL per well of Orexin A peptide (final concentration: 0.5 nM, and/or 50 nM for selected compounds) dissolved in assay buffer is added to the assay plate. The assay plate is incubated for 60 minutes at 37°C. Then 5 µL per well of Anti-IP1-Cryptate Tb solution and 5 µL per well of IP1-d2 dilution are added and the plate is incubated for a further 60 minutes light protected at room temperature.
8-point four parametric non-linear curve fitting and determination of IC50 values and Hill slopes is performed using a regular analysis software e.g. AssayExplorer (Accelrys).

[5] = molecular target: T3, OX2R; conditions: WO2016/034882 Table 2 (Method A), cited from earlier work; for IC50: conversion of pIC50
[6] = molecular target: T2, OX1R; conditions: data as described in WO03/051872 (page 16-18); given as a range; cited from earlier work
[7] = molecular target: T3, OX2R; conditions: data as described in WO03/051872 (page 16-18); given as a range; cited from earlier work
[8] = selectivity ratio, OX1R Kb at 50 nM Orexin A, OX2R Kb at 0.5 nM Orexin A

| Compound | OX2R Kb / OX1R Kb [4, 8] | also measured |
| --- | --- | --- |
| CC[C@@H](CNc1ncc(C(F)(F)F)cn1)N(C)C(=O)c1c(F)cccc1-n1nccn1 [Ex 91 in WO2016/ 034882] | – | Kb [1]: 0.313 µM; OX2R IC50 / OX1R IC50 [2]: Table 3: 318; OX2R pIC50 [3]: < 5.1 |
| CCN(C(=O)c1nc(C)sc1-c1ccc(F)cc1)[C@@H](C)CNc1ncc(C(F)(F)F)cn1 [Example 8] | 367 | – |
| CCN(C(=O)c1ccc(C)c(C)c1-n1nccn1)[C@@H](C)CNc1ccc(Cl)cn1 [Example 14] | 1018 | – |
| CCN(C(=O)c1nccc(C(F)(F)F)c1-c1ccn(C)n1)[C@@H](C)COc1ccc(C(F)(F)F)cn1 [Example 19] | 230 | – |
| CCN(C(=O)c1cc(OC)ccc1-n1nccn1)[C@@H](C)CNc1ncc(C(F)(F)F)cn1 [Example 4] | 736 | – |
| CCN(C(=O)c1cccc(F)c1-c1ncccn1)[C@@H](C)CNc1ccc(C(F)(F)F)cn1 [Example 11] | 212 | – |
| CCN(C(=O)c1cc(C)ccc1-n1nccn1)[C@@H](C)CNc1ncc(C(F)(F)F)cn1 [Example 2] | 379 | – |
| CCN(C(=O)c1ccc(OC)cc1-n1nccn1)[C@@H](C)CNc1ncc(C(F)(F)F)cn1 [Example 20] | 1264 | – |
| CCN(C(=O)c1c(-n2nccn2)ccc(C)c1F)[C@@H](C)CNc1ncc(C(F)(F)F)cn1 [Example 1] | 529 | – |
| CCN(C(=O)c1cccc(F)c1-n1nccn1)[C@@H](C)CNc1ncc(C(F)(F)F)cc1F [Example 16] | 560 | – |
| CCN(C(=O)c1cc(C)ccc1-n1nccn1)[C@@H](C)CNc1ccc(Cl)cn1 [Example 10] | 403 | – |
| CCN(C(=O)c1nc(C)sc1-c1ccccc1)[C@@H](C)CNc1ncc(C(F)(F)F)cn1 [Example 6] | 527 | – |
| CCN(C(=O)c1cccc(F)c1-c1ncccn1)[C@@H](C)CNc1ccc(F)c(C(F)(F)F)n1 [Example 12] | 216 | – |
| CC[C@@H](CNc1ncc(C(F)(F)F)cn1)N(C)C(=O)c1cc(Cl)ccc1-n1nccn1 [Ex 39 in WO2016/ 034882] | – | OX2R pIC50 [5]: < 5.0; IC50 [5]: < 10 µM; IC50 [3]: 1.58 µM |
| CC[C@@H](CNc1ncc(C(F)(F)F)cn1)N(C)C(=O)c1nc(C)ccc1-c1ncccn1 [Ex 84 in WO2016/ 034882] | – | Kb [1]: 0.229 µM |
| Cc1nc(C(=O)N(C)CCNc2ncc(Br)cn2)c(-c2ccc(F)cc2)s1 [Example 6 in WO03/051872] | – | OX1R pKb [6]: 6.4 to 7.4; OX2R pKb [7]: <6.6 to 7.4 |
| CC[C@@H](CNc1ccc(C(F)(F)F)cn1)N(CC)C(=O)c1nc(C)ccc1-n1nccn1 [Ex 71 in WO2016/ 034882] | – | OX2R Kb / OX1R Kb [4]: 905; OX2R pIC50 [3]: 6.6 |
| CCN(C(=O)c1cc(F)ccc1-c1ncccn1)[C@@H](C)CNc1ncc(C(F)(F)F)cc1F [Example 13] | 438 | – |
| CC[C@@H](CNc1ncc(C(F)(F)F)cn1)N(CC)C(=O)c1nc(C)ccc1-n1nccn1 [Ex 73 in WO2016/ 034882] | – | OX2R pIC50 [3]: < 6.0; IC50 [3]: > 1 µM |
| CCN(C(=O)c1cccc(F)c1-n1nccn1)[C@@H](C)CNc1ccc(F)c(C(F)(F)F)n1 [Example 18] | 209 | – |
| CCN(C(=O)c1cccc(F)c1-n1nccn1)[C@@H](C)CNc1ccc(Cl)cn1 [Example 17] | 268 | – |
| CCN(C(=O)c1cccc(F)c1-n1nccn1)[C@@H](C)CNc1ccc(C(F)(F)F)cn1 [Example 15] | 880 | – |
| CCN(C(=O)c1ccc(Cl)cc1-n1nccn1)[C@@H](C)CNc1ncc(C(F)(F)F)cn1 [Example 7] | 922 | – |
| CCN(C(=O)c1ccc(C)cc1-n1nccn1)[C@@H](C)CNc1ncc(C(F)(F)F)cn1 [Example 5] | 1783 | – |
| CC[C@@H](CNc1ccc(Cl)cn1)N(C)C(=O)c1cc(C)ccc1-n1nccn1 [Ex 1 in WO2016/ 034882] | – | IC50 [5]: 1.26 µM |
